≈ marks a conversion by molar mass, not a printed value. Where two headings read alike, the source gives them in different places. Numbered stars: 1 amine (or outer) side, 2 acyl side, 3 side chain; on linkers, the order of the positions; unused ones are H or OH. Bridge positions count the residues as written; N and C are the ends. Side chains are listed from the residue outwards. Peptide text beside a SMILES is read from it. * marks the point of attachment. C20 diacid = O=C(O)CCCCCCCCCCCCCCCCCCC(=O)*; γGlu = O=C(O)[C@H](CCC(=O)[*:2])N[*:1]
Tests used:
rat calcitonin receptor = target: T1, rat calcitonin receptor (Rattus norvegicus, UniProt P32214); test: ASSAY (VIII) binding to the rat calcitonin receptor; settings: Table 7, read-out: rCTR bind IC50
T1 construct: expressed in transfected cells; host or cells: BHK tk'ts 13 (transient, FuGENE 6), membranes
T1 sequence (P32214 25-479 isoform P32214-2 limits assumed): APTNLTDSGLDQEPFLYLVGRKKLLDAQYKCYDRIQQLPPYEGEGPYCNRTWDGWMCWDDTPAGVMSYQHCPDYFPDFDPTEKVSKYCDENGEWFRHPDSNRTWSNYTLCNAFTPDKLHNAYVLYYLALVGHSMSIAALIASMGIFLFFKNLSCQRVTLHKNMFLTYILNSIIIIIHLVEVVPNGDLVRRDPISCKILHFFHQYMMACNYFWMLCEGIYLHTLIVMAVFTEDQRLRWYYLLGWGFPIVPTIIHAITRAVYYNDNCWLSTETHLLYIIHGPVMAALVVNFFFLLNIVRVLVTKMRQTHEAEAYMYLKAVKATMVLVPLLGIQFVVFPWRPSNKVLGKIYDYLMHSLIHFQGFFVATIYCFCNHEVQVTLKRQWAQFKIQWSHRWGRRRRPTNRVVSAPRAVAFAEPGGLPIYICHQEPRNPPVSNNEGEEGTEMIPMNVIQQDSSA
Procedure, shortened: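 Receptor source: membranes from transiently transfected BHK tk′ts 13 cells expressing rat calcitonin receptor, collected roughly 48 hours after transfection.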

[1] = target: T2, human amylin receptor (membranes from Amylin 3(a)/CRE-luc cells) (Homo sapiens, UniProt O60896+P30988); test: ASSAY (V) binding to the human amylin receptor (SPA, 125I-rat amylin);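 further: competition binding of cell membranes (35 ng/µL) mixed with SPA beads in 384-well plates at 40 µL total volume, read by scintillation counting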
T2 construct: expressed in transfected cells
T2 sequence (P30988 25-474): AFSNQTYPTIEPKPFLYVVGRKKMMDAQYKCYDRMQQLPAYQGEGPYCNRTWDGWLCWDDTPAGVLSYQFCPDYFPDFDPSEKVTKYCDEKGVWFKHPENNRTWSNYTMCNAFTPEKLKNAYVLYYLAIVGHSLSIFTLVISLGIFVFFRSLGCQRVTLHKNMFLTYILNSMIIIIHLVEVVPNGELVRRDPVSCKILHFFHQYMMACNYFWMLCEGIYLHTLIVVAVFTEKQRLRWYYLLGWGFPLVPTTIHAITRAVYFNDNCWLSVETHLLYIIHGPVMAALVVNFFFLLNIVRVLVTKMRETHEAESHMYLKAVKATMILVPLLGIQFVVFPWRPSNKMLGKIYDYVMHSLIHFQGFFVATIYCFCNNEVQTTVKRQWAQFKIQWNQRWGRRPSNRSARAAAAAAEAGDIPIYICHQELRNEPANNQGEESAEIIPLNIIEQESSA
T2 sequence (O60896 24-148 partner): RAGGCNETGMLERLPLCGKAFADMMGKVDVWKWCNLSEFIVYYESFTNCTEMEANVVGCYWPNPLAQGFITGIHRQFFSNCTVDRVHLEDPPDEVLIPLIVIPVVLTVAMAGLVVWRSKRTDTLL

[2] = target: T3, rat amylin receptor (rat calcitonin receptor + rat RAMP 3) (Rattus norvegicus, UniProt P32214+Q9JJ73); test: ASSAY (VI) binding to the rat amylin receptor; settings: for IC50: binding to rat amylin receptor, read-out: rAmylin-R bind IC50
T3 construct: expressed in transfected cells; host or cells: BHK tk'ts 13 (transient, FuGENE 6), membranes
T3 sequence (P32214 25-479 isoform P32214-2 limits assumed): T1 sequence (P32214 25-479 isoform P32214-2 limits assumed)
T3 sequence (Q9JJ73 23-147 partner): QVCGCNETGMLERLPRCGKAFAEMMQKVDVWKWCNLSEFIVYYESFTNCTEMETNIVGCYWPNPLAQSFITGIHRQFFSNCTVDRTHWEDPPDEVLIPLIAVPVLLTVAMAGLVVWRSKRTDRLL
Procedure, shortened: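 The cell-membrane assay assessed binding at the rat amylin receptor. BHK tk′ts 13 cells were transfected transiently with rat calcitonin receptor, with FuGENE® 6 (Roche) as the transfection reagent, used per the manufacturer's recommendations. Approximately 48 hours after transfection the cells were harvested, and membranes were prepared for measuring binding.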

[3] = ASSAY (IV) determination of solubility; type: physicochemical
Procedure, shortened: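 UPLC read-out of polypeptide concentration after centrifugation. Samples: aqueous polypeptide stock ([…]) + 100 mM buffer 1:1, glycylglycine pH 3.0–5.0 or bistrispropane pH 6.0–8.0; 18 h, RT.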

[4] = Table 5, selectivity, hCTR bind IC50 / hAmylin-R bind IC50
[5] = Table 5a, selectivity, hCTR bind IC50 / hAmylin-R bind IC50
[6] = Table 5b, selectivity, hCTR bind IC50 / hAmylin-R bind IC50
[7] = Table 5c, selectivity, hCTR bind IC50 / hAmylin-R bind IC50
[8] = Table 7, human binding selectivity, included for comparison
[9] = Table 7a (preferred compounds), human binding selectivity, included for comparison
[10] = ratio of human calcitonin receptor binding IC50 to human amylin receptor binding IC50
[11] = Table 7, rat binding selectivity, rCTR IC50 / rAmylin-R IC50
[12] = Table 7a (preferred compounds), rat binding selectivity, rCTR IC50 / rAmylin-R IC50
[13] = ratio of rCTR bind IC50 to rAmylin-R bind IC50
[14] = bistrispropane buffer, pH 6.5, read-out: Solubility pH 6.5 Concentration
[15] = bistrispropane buffer, pH 7.5, read-out: Solubility pH 7.5 Concentration
[16] = bistrispropane buffer, pH 6.0, read-out: Solubility pH 6.0 Concentration
[17] = bistrispropane buffer, pH 7.0, read-out: Solubility pH 7.0 Concentration
[18] = bistrispropane buffer, pH 8.0, read-out: Solubility pH 8.0 Concentration
[19] = glycylglycine buffer, pH 3.0, read-out: Solubility pH 3.0 Concentration
[20] = glycylglycine buffer, pH 4.0, read-out: Solubility pH 4.0 Concentration
[21] = glycylglycine buffer, pH 5.0, read-out: Solubility pH 5.0 Concentration

| IC50 (rat calcitonin receptor) | Ratio hCT/hAmylin binding [1, 4] | Ratio hCT/hAmylin binding [1, 5] | Ratio hCT/hAmylin binding [1, 6] | Ratio hCT/hAmylin binding [1, 7] | Ratio hCT/hAmylin binding [1, 8] | Ratio hCT/hAmylin binding [1, 9] | Ratio hCT/hAmylin binding [1, 10] | IC50 ([2]; Table 7) | Ratio rCT/rAmylin binding [2, 11] | Ratio rCT/rAmylin binding [2, 12] | Ratio rCT/rAmylin binding [2, 13] | solubility at 18 h [3, 14] | solubility at 18 h [3, 15] | solubility at 18 h [3, 16] | solubility at 18 h [3, 17] | solubility at 18 h [3, 18] | solubility at 18 h [3, 19] | solubility at 18 h [3, 20] | solubility at 18 h [3, 21] | Structure (SMILES) |
| --- | --- | --- | --- | --- | --- | --- | --- | --- | --- | --- | --- | --- | --- | --- | --- | --- | --- | --- | --- | --- |
| 31.9 nM | 49.8 | 49.8 | 49.8 | 49.8 | 49.8 | 49.8 | 49.8 | 0.324 nM | 98.5 | 98.5 | 98.5 | ≥ 200 µM | ≥ 200 µM | ≥ 200 µM | ≥ 200 µM | ≥ 200 µM | ≥ 200 µM | ≥ 200 µM | ≥ 200 µM | CC[C@H](C)[C@H](NC(=O)[C@H](C)NC(=O)CNC(=O)[C@H](Cc1ccccc1)NC(=O)[C@H](CC(N)=O)NC(=O)[C@@H]1CCCN1C(=O)[C@H](CO)NC(=O)[C@H](CO)NC(=O)[C@H](Cc1c[nH]cn1)NC(=O)[C@H](CCCNC(=N)N)NC(=O)[C@H](CC(C)C)NC(=O)[C@H](Cc1ccccc1)NC(=O)[C@H](CC(=O)O)NC(=O)[C@H](C)NC(=O)[C@H](CC(C)C)NC(=O)[C@H](CCCNC(=N)N)NC(=O)[C@H](CCC(N)=O)NC(=O)[C@@H](NC(=O)[C@H](C)NC(=O)[C@@H]1CSSC[C@H](NC(=O)[C@@H](N)CCCCNC(=O)CC[C@H](NC(=O)CC[C@H](NC(=O)CCCCCCCCCCCCCCCCCCC(=O)O)C(=O)O)C(=O)O)C(=O)N[C@@H](CC(N)=O)C(=O)N[C@@H]([C@@H](C)O)C(=O)N[C@@H](C)C(=O)N[C@@H]([C@@H](C)O)C(=O)N1)[C@@H](C)O)C(=O)N1CCC[C@H]1C(=O)N[C@@H](CO)C(=O)N[C@@H](CO)C(=O)N[C@H](C(=O)N[C@@H](CC(N)=O)C(=O)N[C@H](C(=O)NCC(=O)N1CCC[C@H]1C(=O)N[C@@H](CCC(=O)O)C(=O)N[C@H](C(=O)N[C@@H](Cc1ccc(O)cc1)C(N)=O)[C@@H](C)O)C(C)C)[C@@H](C)O [Example 122] (H-K([γGlu-γGlu-C20 diacid])CNTATCATQRLADFLRHSSPNFGAIPSSTNVGPETY-NH2; disulfide 2-7 (inferred); N-terminus assumed) |
| 707 nM | 23.5 | 23.5 | 23.5 | 23.5 | 23.5 | 23.5 | 23.5 | 2.52 nM | 280.1 | 280.1 | 280.1 | ≥ 200 µM | ≥ 200 µM | ≥ 200 µM | ≥ 200 µM | ≥ 200 µM | ≥ 200 µM | ≥ 200 µM | ≥ 200 µM | CC[C@H](C)[C@H](NC(=O)[C@H](C)NC(=O)CNC(=O)[C@H](Cc1ccccc1)NC(=O)[C@H](CC(N)=O)NC(=O)[C@@H]1CCCN1C(=O)[C@H](CO)NC(=O)[C@H](CO)NC(=O)[C@H](Cc1c[nH]cn1)NC(=O)[C@H](CCCNC(=N)N)NC(=O)[C@H](CC(C)C)NC(=O)[C@H](Cc1ccccc1)NC(=O)[C@H](CC(N)=O)NC(=O)[C@H](C)NC(=O)[C@H](CC(C)C)NC(=O)[C@H](CCCNC(=N)N)NC(=O)[C@H](CCC(N)=O)NC(=O)[C@@H](NC(=O)[C@H](C)NC(=O)[C@@H]1CSSC[C@H](NC(=O)[C@@H](N)CCCCNC(=O)CC[C@H](NC(=O)CCCCCCCCCCCCC(=O)O)C(=O)O)C(=O)N[C@@H](CC(N)=O)C(=O)N[C@@H]([C@@H](C)O)C(=O)N[C@@H](C)C(=O)N[C@@H]([C@@H](C)O)C(=O)N1)[C@@H](C)O)C(=O)N1CCC[C@H]1C(=O)N[C@@H](CO)C(=O)N[C@@H](CO)C(=O)N[C@H](C(=O)N[C@@H](CC(N)=O)C(=O)N[C@H](C(=O)NCC(=O)N[C@@H](Cc1c[nH]cn1)C(=O)N[C@@H](CC(N)=O)C(=O)N[C@H](C(=O)N[C@@H](Cc1ccc(O)cc1)C(N)=O)[C@@H](C)O)C(C)C)[C@@H](C)O [Example 112] |
| 108 nM | 47.5 | 47.5 | 47.5 | 47.5 | 47.5 | 47.5 | 47.5 | 0.295 nM | 365.7 | 365.7 | 365.7 | 190 µM (≈ 857 µg/mL) | ≥ 200 µM | ≥ 200 µM | ≥ 200 µM | ≥ 200 µM | ≥ 200 µM | ≥ 200 µM | ≥ 200 µM | CC[C@H](C)[C@H](NC(=O)[C@H](C)NC(=O)CNC(=O)[C@H](Cc1ccccc1)NC(=O)[C@H](CC(N)=O)NC(=O)[C@@H]1CCCN1C(=O)[C@H](CO)NC(=O)[C@H](CO)NC(=O)[C@H](Cc1c[nH]cn1)NC(=O)[C@H](CCCNC(=N)N)NC(=O)[C@H](CC(C)C)NC(=O)[C@H](Cc1ccccc1)NC(=O)[C@H](CC(=O)O)NC(=O)[C@H](C)NC(=O)[C@H](CC(C)C)NC(=O)[C@H](CCCNC(=N)N)NC(=O)[C@H](CCC(N)=O)NC(=O)[C@@H](NC(=O)[C@H](C)NC(=O)[C@@H]1CSSC[C@H](NC(=O)[C@@H](N)CCCCNC(=O)CC[C@H](NC(=O)CC[C@H](NC(=O)CCCCCCCCCCCCCCCCCCC(=O)O)C(=O)O)C(=O)O)C(=O)N[C@@H](CC(N)=O)C(=O)N[C@@H]([C@@H](C)O)C(=O)N[C@@H](C)C(=O)N[C@@H]([C@@H](C)O)C(=O)N1)[C@@H](C)O)C(=O)N1CCC[C@H]1C(=O)N[C@@H](CO)C(=O)N[C@@H](CO)C(=O)N[C@H](C(=O)N[C@@H](CC(N)=O)C(=O)N[C@H](C(=O)NCC(=O)N[C@@H](CO)C(=O)N[C@@H](CC(=O)O)C(=O)N[C@H](C(=O)N[C@@H](Cc1ccc(O)cc1)C(N)=O)[C@@H](C)O)C(C)C)[C@@H](C)O [Example 2] (H-K([γGlu-γGlu-C20 diacid])CNTATCATQRLADFLRHSSPNFGAIPSSTNVGSDTY-NH2; disulfide 2-7; N-terminus assumed) |

Reference: patent publication US9023789B2, “Amylin analogs and pharmaceutical compositions thereof” (Novo Nordisk A/S, priority 2012, dated 2015)
